In patent US20230310390A1, “INHIBITORS OF SHORT-CHAIN DEHYDROGENASE ACTIVITY FOR TREATING NEURODEGENERATION” (CASE WESTERN RESERVE UNIVERSITY, priority 2020, published 2023):
“Also recorded” adds a separate entry of the source.

Key:
Format in all cases: in vivo
15-PGDH = target: T1, 15-PGDH (Mus musculus, UniProt Q8VCC1); experiment: 15-PGDH activity in whole brain of 5×FAD and WT mice; conditions: 5 mg/kg/day twice daily from 2 to 6 months of age
T1 construct: brain tissue was dissected 3 weeks later for biochemical determination of 15-PGDH enzymatic activity; from tissue; host or cells: mouse brain (forebrain after TBI; whole brain of 5xFAD and WT littermates)
T1 sequence (Q8VCC1 1-269): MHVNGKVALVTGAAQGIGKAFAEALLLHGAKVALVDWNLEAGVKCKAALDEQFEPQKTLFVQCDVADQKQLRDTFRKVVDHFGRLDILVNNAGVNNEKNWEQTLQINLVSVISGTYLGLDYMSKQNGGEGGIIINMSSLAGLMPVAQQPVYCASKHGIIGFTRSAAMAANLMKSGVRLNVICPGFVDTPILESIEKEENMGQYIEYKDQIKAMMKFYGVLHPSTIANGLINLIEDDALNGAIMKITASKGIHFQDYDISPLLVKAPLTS
Experimental: (A) 8 week old 15-PGDH wild-type (Hpgd^+/+) and 15-PGDH knockout (Hpgd^−/−) mice were subjected to TBI, and brain tissue was dissected 2 weeks later for western blot. […] Individual human data points are shown on the graph. Data was analyzed with Student's t test. * p<0.05. All data is mean±SEM. (C) Hpgd^+/+ mice were subjected to TBI at 8 weeks of age and then brain tissue was dissected 3 weeks later for biochemical determination of 15-PGDH enzymatic activity. […] Individual mouse data points are shown on the graph. Data was analyzed with Student's t test. ** p<0.01, **** p<0.0001. All data is mean±SEM. (D) 5×FAD mice and wild type littermates (WT) were administered either 5 mg/kg/day (+)-SW033291 twice daily (or vehicle) from 2 to 6 months of age, and then brains were dissected for biochemical assessment of 15-PGDH activity. […] Individual mouse data points are shown on the graph. Data was analyzed using two-way repeated measures ANOVA; * p<0.05, ** p<0.01, *** p<0.001. All data is mean±SEM.

eicosanoids = experiment: Eicosanoid profiling by LC-MS/MS, right brain hemisphere of wild-type and 5×FAD mice; conditions: 5 mk/kg twice daily for 4 weeks
Experimental: Eicosanoids were measured by methods of liquid chromatography with tandem mass spectrometry with the use of spiked in deuterated internal standards. Eicosanoids measured included: the 6-keto-PGF1 alpha (6-keto-PGF1a, a hydrolysis product of and proxy for prostacyclin), thromboxane B2 (TXB2, a metabolite/product of and proxy for thromboxane A2), PGD2, PGE2, 15-keto-PGE2 (produced by 15-PGDH degradation of PGE2), tetranor PGE1 (TN-E, a metabolic product produced by beta-oxidation of PGE2), PGJ2, PGF2 alpha (PGF2a), LTB4, 15-HETE, 12-HETE, 8-HETE, 5-HETE, 17-HDHA, 12,13-DiHOME, 14,15-DHET, 11,12-DHET.
FIG. 3 illustrates graphs showing comparison of eicosanoid values in brain of 6 month old male mice that are either wild-type or that are the 5×FAD strain of mice that model Alzheimer's disease. Beginning at 5 months of age both genotypes of mice were injected twice daily with either 5 mk/kg (+)-SW033291 or with matched vehicle control as described in Zhang et al. Science. 2015; 348(6240):aaa2340. PMCID: PMC4481126. Treatment continued twice daily for 4 weeks. Mice were sacrificed at 3 hours following their final injection. After sacrifice the right hemisphere of the brain was dissected, flash frozen, and powdered, and eicosanoids were extracted in aqueous buffer for analysis. Protein concentration of the extracts were assayed, and eicosanoid values were recorded as ng eicosanoid per mg protein.

5×FAD mice = experiment: Morris water maze in 5×FAD mice; conditions: 5 mg/kg/day twice daily from 2 to 6 months
Experimental: (A) Experimental Timeline: Two month old 5×FAD and wild type (WT) littermates were treated with 5 mg/kg/day twice daily (+)-SW033291 (or vehicle) every day from 2 to 6 months. Cognitive performance was tested using Morris water maze (MWM) as shown in the timeline. (B) Animals were trained to find the hidden platform in the MWM maze for 3 consecutive days (4 trials/day), and latency to find the hidden platform was measured. […] (C) To probe for spatial memory of the hidden platform, one day after the last learning day the animals were tested in the same MWM, except the platform was removed. Memory was measured as latency to first cross the area where the platform was located and the number of times an animal crossed that area. […] Individual mouse data points are shown on the graph. Data was analyzed using two-way repeated measures ANOVA; * p<0.05, ** p<0.01, *** p<0.001. All data is mean±SEM.

[1] = test system: C57/B6 mice exposed to TBI; experiment: Morris water maze after TBI; conditions: for memory / cognitive impairment after TBI (MWM probe): 5 mg/kg twice daily started 24 hours after injury, tested 2 weeks after injury
Experimental: (A) Experimental Timeline: 8 week old C57/B6 mice were exposed to sham-injury or TBI. Twice daily treatment with 5 mg/kg (+)-SW033291 or vehicle was started 24 hours after injury and continued throughout the duration of the experiment. Animals were tested for cognitive performance in the Morris water maze (MWM) 2 weeks after injury. (B) Animals were trained to find the hidden platform in the MWM for 4 consecutive days (4 trials/day), with performance measured as latency to find the hidden platform. […] (C, D) To probe for spatial memory of the learned location of the hidden platform, one day after the final learning day the animals were tested in the same MWM except the platform was removed. Memory was measured as latency to first cross the area where the platform was located and the number of times the animal crossed that area. […] Individual mouse data points are shown on the graph. Data was analyzed using two-way repeated measures ANOVA; * p<0.05, ** p<0.01, *** p<0.001. All data is mean±SEM

[2] = test system: 5×FAD and wild type (WT) mice; experiment: BrdU staining, survival of newborn hippocampal neurons; conditions: 5 mg/kg/day twice daily from 2 to 6 months; for survival of newborn hippocampal neurons (BrdU): 28 days after BrdU
Experimental: Two month old 5×FAD and wild type (WT) littermates were treated with 5 mg/kg/day twice daily (+)-SW033291 (or vehicle) every day from 2 to 6 months. At 5 months of age, mice were injected with a single dose of 150 mg/kg bromodeoxyuridine (BrdU) to label replicating cells. At the age of 6 months (28 days after BrdU) mice were transcardially perfused and brains were dissected for examination of fixed tissue. […] Individual mouse data points are shown on the graph. Data was analyzed using two-way repeated measures ANOVA; * p<0.05, ** p<0.01, ***p<0.001, ****p<0.0001. All data is mean±SEM.

[3] = wild-type mice, compared to vehicle treated wild-type mice
[4] = MWM probe test, TBI mice, 5 mg/kg twice daily

For `CCCC[S+]([O-])c1sc2nc(-c3cccs3)cc(-c3ccccc3)c2c1N` (single isomer, unassigned; (+)) [(+)-SW033291], the “15-PGDH activity in the whole brain” value (15-PGDH; 5×FAD mice, compared to 5×FAD vehicle, 5 mg/kg/day) was “significantly lowered 15-PGDH activity in the whole brain; also recorded: returned to normal”, the “15-PGDH activity in the whole brain” value (15-PGDH; WT mice, compared to WT vehicle) was “significantly lowered 15-PGDH activity in the whole brain” and the “eicosanoid values in right hemisphere of the brain (trends)” value (eicosanoids; 5×FAD mice, versus vehicle control treated 5×FAD mice) was “a trend to increased 15-keto-PGE2, TN-E, PGF2a, 12,13-DiHOME, and 11,12-DHET”. The “6-keto-PGF1a, PGE2 in right hemisphere of the brain” value (eicosanoids; [3]) was “significant increase in 6-keto-PGF1a, PGE2”, the “eicosanoid values in right hemisphere of the brain (trends)” value (eicosanoids; [3]) was “a trend to increased TXB2, PGD2, 15-keto-PGE2, TN-E, PGJ2, PGF2a, LTB4, 15-HETE, 12-HETE, 8-HETE, 17-HDHA, 9,10-DiHOME, 14,15-DHET” and the “average (escape) latency to find the hidden platform (learning)” value (5×FAD mice; 5×FAD and WT mice, 3 consecutive days) was “not different between groups”. The “memory deficit / cognitive function (MWM probe)” value (5×FAD mice; 5×FAD mice, 5 mg/kg/day) was “alleviated this deficit”, the “memory deficit / cognitive function (MWM probe)” value (5×FAD mice; 5×FAD mice, listed as (+)-SW033921, 5 mg/kg/day) was “protects cognitive function in 5×FAD mice” and the “number of platform crosses” value (5×FAD mice; MWM probe test, 5×FAD mice) was “significantly decreased in the vehicle-treated 5×FAD group compared to the other groups”. For the same compound, the “average latency to crossing the platform area” value [1, 4] was “significantly increased in the vehicle-treated TBI-injured group compared to all other groups”, the “number of platform crosses” value [1, 4] was “significantly decreased in the vehicle-treated TBI-injured group compared to all other groups” and the “average (escape) latency to find the hidden platform (learning)” value ([1]; TBI and sham-injured mice, 4-day learning period, 5 mg/kg twice daily) was “not different between groups”. The “memory / cognitive impairment after TBI (MWM probe)” value ([1]; TBI mice, 5 mg/kg) was “TBI-injured animals treated with vehicle showed memory deficits compared to the (+)-SW033291-treated TBI group”, the “memory / cognitive impairment after TBI (MWM probe)” value ([1]; TBI mice, listed as (+)-SW033921, 5 mg/kg) was “protects wild type mice from cognitive impairment after TBI” and the “survival of young hippocampal neurons relative to WT-vehicle mice” value ([2]; 5×FAD mice) was “comparable extent as WT-vehicle mice”. For the same compound, the “survival of newborn hippocampal neurons (BrdU)” value ([2]; 5×FAD mice, 5 mg/kg/day) was “augments the survival of newborn hippocampal neurons” and the “survival of newborn hippocampal neurons (BrdU)” value ([2]; WT mice) was “augments the survival of newborn hippocampal neurons”.
